Measurements taken from PubChem BioAssay (NCI).
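Briefly, cells in 96-well plates were exposed to five compound concentrations for 48 h, and endpoints were estimated by linear interpolation. At the TGI there is no net growth.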

How the values were obtained:
Assay in all cases: inhibition of tumour cell growth, NCI panel, 48 h
A549 NSCLC = tested on: A549 NSCLC
CCRF-CEM leukemia = tested on: CCRF-CEM leukemia
HCC-2998 colon = tested on: HCC-2998 colon
HCT-116 colon = tested on: HCT-116 colon
HCT-15 colon = tested on: HCT-15 colon
HOP-62 NSCLC = tested on: HOP-62 NSCLC
HT29 colon = tested on: HT29 colon
MCF7 breast = tested on: MCF7 breast
MDA-MB-231 breast = tested on: MDA-MB-231 breast
MOLT-4 leukemia = tested on: MOLT-4 leukemia
NCI-H522 lung = tested on: NCI-H522 lung
NCI/ADR-RES ovarian = tested on: NCI/ADR-RES ovarian
OVCAR-8 ovarian = tested on: OVCAR-8 ovarian
RXF 393 renal = tested on: RXF 393 renal
SF-295 CNS = tested on: SF-295 CNS
SK-OV-3 ovarian = tested on: SK-OV-3 ovarian
SR leukemia = tested on: SR leukemia
UACC-62 melanoma = tested on: UACC-62 melanoma
UO-31 renal = tested on: UO-31 renal
SNB-19 CNS = tested on: SNB-19 CNS

CC(=O)N1N=C(c2ccc3ccccc3c2O)CC1c1cccs1 (stereo not given)
TGI (A549 NSCLC): 94.9 µM
TGI (CCRF-CEM leukemia): > 100 µM
TGI (HCC-2998 colon): 66 µM
TGI (HCT-116 colon): > 100 µM
TGI (HCT-15 colon): > 100 µM
TGI (HOP-62 NSCLC): > 100 µM
TGI (HT29 colon): > 100 µM
TGI (MCF7 breast): > 100 µM
TGI (MDA-MB-231 breast): > 100 µM
TGI (MOLT-4 leukemia): 33.5 µM
TGI (NCI-H522 lung): 75.1 µM
TGI (NCI/ADR-RES ovarian): 39.5 µM
TGI (OVCAR-8 ovarian): > 100 µM
TGI (RXF 393 renal): 99.3 µM
TGI (SF-295 CNS): > 100 µM
TGI (SK-OV-3 ovarian): > 100 µM
TGI (SR leukemia): 14.3 µM
TGI (UACC-62 melanoma): 25.9 µM
TGI (UO-31 renal): 64.1 µM

O=C1C(Cl)N(c2cccc(Cl)c2)C1c1c[nH]c2ccccc12 (stereo not given)
TGI (A549 NSCLC): > 100 µM
TGI (CCRF-CEM leukemia): > 100 µM
TGI (HCT-116 colon): > 100 µM
TGI (HOP-62 NSCLC): > 100 µM
TGI (HT29 colon): > 100 µM
TGI (MOLT-4 leukemia): > 100 µM
TGI (NCI-H522 lung): > 100 µM
TGI (OVCAR-8 ovarian): > 100 µM
TGI (RXF 393 renal): > 100 µM
TGI (SF-295 CNS): > 100 µM
TGI (SK-OV-3 ovarian): > 100 µM
TGI (SNB-19 CNS): > 100 µM
TGI (SR leukemia): > 100 µM
TGI (UACC-62 melanoma): > 100 µM
TGI (UO-31 renal): > 100 µM

CC[C@@H]1ON(C)[C@H]2CN(C)C(=O)[C@@H]12
TGI (A549 NSCLC): > 100 µM
TGI (CCRF-CEM leukemia): > 100 µM
TGI (HCC-2998 colon): > 100 µM
TGI (HCT-116 colon): > 100 µM
TGI (HCT-15 colon): > 100 µM
TGI (HOP-62 NSCLC): > 100 µM
TGI (HT29 colon): > 100 µM
TGI (MCF7 breast): > 100 µM
TGI (MDA-MB-231 breast): > 100 µM
TGI (MOLT-4 leukemia): > 100 µM
TGI (NCI-H522 lung): > 100 µM
TGI (NCI/ADR-RES ovarian): > 100 µM
TGI (OVCAR-8 ovarian): > 100 µM
TGI (SF-295 CNS): > 100 µM
TGI (SK-OV-3 ovarian): > 100 µM
TGI (SNB-19 CNS): > 100 µM
TGI (SR leukemia): > 100 µM
TGI (UO-31 renal): > 100 µM

COc1ccc(-c2csc(=Nc3ccccc3)n2CCCN(C)C)cc1
TGI (A549 NSCLC): 36.3 µM
TGI (CCRF-CEM leukemia): > 100 µM
TGI (HCC-2998 colon): 35.3 µM
TGI (HCT-15 colon): > 100 µM
TGI (HOP-62 NSCLC): 28.3 µM
TGI (MDA-MB-231 breast): > 100 µM
TGI (MOLT-4 leukemia): 48.9 µM
TGI (NCI/ADR-RES ovarian): 54.3 µM
TGI (OVCAR-8 ovarian): 75.6 µM
TGI (RXF 393 renal): 26.6 µM
TGI (SF-295 CNS): 27.6 µM
TGI (SK-OV-3 ovarian): 39.4 µM
TGI (SNB-19 CNS): 48.1 µM
TGI (SR leukemia): 67.1 µM
TGI (UACC-62 melanoma): 34.7 µM
TGI (UO-31 renal): 44.9 µM

COc1cc(C2S/C(=C/c3ccccc3)C(=O)N2c2ccc(NC(C)=O)cc2)cc(OC)c1OC (stereo not given)
TGI (A549 NSCLC): > 100 µM
TGI (CCRF-CEM leukemia): 20.4 µM
TGI (HCC-2998 colon): 52.3 µM
TGI (HCT-116 colon): 26.1 µM
TGI (HCT-15 colon): 46.7 µM
TGI (HOP-62 NSCLC): > 100 µM
TGI (HT29 colon): 32 µM
TGI (MCF7 breast): > 100 µM
TGI (MDA-MB-231 breast): 41.3 µM
TGI (MOLT-4 leukemia): 75.6 µM
TGI (NCI-H522 lung): 26.6 µM
TGI (NCI/ADR-RES ovarian): 76.2 µM
TGI (OVCAR-8 ovarian): 76.9 µM
TGI (RXF 393 renal): 63 µM
TGI (SF-295 CNS): > 100 µM
TGI (SK-OV-3 ovarian): > 100 µM
TGI (SNB-19 CNS): > 100 µM
TGI (SR leukemia): > 100 µM
TGI (UACC-62 melanoma): > 100 µM
TGI (UO-31 renal): > 100 µM

COc1ccc2c(c1O)-c1cc(O)cc3c1[C@@H](C2)N(C)CC3
TGI (A549 NSCLC): 138 µM
TGI (CCRF-CEM leukemia): 262 µM
TGI (HCC-2998 colon): 139 µM
TGI (HCT-116 colon): 49.9 µM
TGI (HCT-15 colon): 140 µM
TGI (HOP-62 NSCLC): 106 µM
TGI (HT29 colon): 223 µM
TGI (MCF7 breast): 129 µM
TGI (MOLT-4 leukemia): 211 µM
TGI (NCI-H522 lung): 255 µM
TGI (NCI/ADR-RES ovarian): 227 µM
TGI (OVCAR-8 ovarian): 8.27 µM
TGI (RXF 393 renal): 119 µM
TGI (SF-295 CNS): 145 µM
TGI (SK-OV-3 ovarian): 289 µM
TGI (SNB-19 CNS): 378 µM
TGI (UACC-62 melanoma): 136 µM
TGI (UO-31 renal): 103 µM

CCOC1=NC(C(F)(F)F)(C(F)(F)F)N=C(N2CCOCC2)O1
TGI (A549 NSCLC): > 100 µM
TGI (CCRF-CEM leukemia): > 100 µM
TGI (HCC-2998 colon): > 100 µM
TGI (HCT-116 colon): > 100 µM
TGI (HCT-15 colon): > 100 µM
TGI (HT29 colon): > 100 µM
TGI (MCF7 breast): > 100 µM
TGI (MDA-MB-231 breast): > 100 µM
TGI (MOLT-4 leukemia): > 100 µM
TGI (NCI-H522 lung): > 100 µM
TGI (NCI/ADR-RES ovarian): > 100 µM
TGI (OVCAR-8 ovarian): > 100 µM
TGI (RXF 393 renal): > 100 µM
TGI (SF-295 CNS): > 100 µM
TGI (SK-OV-3 ovarian): > 100 µM
TGI (SNB-19 CNS): > 100 µM
TGI (SR leukemia): > 100 µM
TGI (UACC-62 melanoma): > 100 µM
TGI (UO-31 renal): > 100 µM
